In EP0551200A1, “Protein phosphatase inhibitors for use in therapy” (priority 1992, dated 1993):

System: Egr-1 protein
Assay: Immunoprecipitation of 32P-labeled Egr-1 protein from Balb/c 3T3 cells
Format: cell-based, mouse
Conditions: 2 h treatment; OA 0.5 µM, calyculin A 25 nM, 20% fetal calf serum
Method: Quiescent Balb/c 3T3 cells were labeled with [³²P]-orthophosphate and incubated with either 20% fetal calf serum or okadaic acid (0.5 µM) for 2 h as described in "Experimental Procedures" of Example 2. Egr-1 protein(s) was immunoprecipitated by anti-Egr-1 antibody (R5232) and subjected to 7.5% SDS-PAGE. The dried SDS-gel was autoradiographed. lanes C, S and OA show immunoprecipitated proteins derived from quiescent cells, serum and okadaic acid-treated cells respectively. • (B). The immunoprecipitated Egr-1 protein(s) from okadaic acid-treated [³²P]-labeled Balb/c 3T3 cells was also subjected to 2-D gel electrophoresis as previously described (Guy et al, J. Biol. Chem. 266, 14343-14352, 1991). […]
The radioactivity of the in vitro transcribed RNA was determined and equal amounts of radioactive RNA from uninduced and okadaic acid treated cells were used to hybridize to specific plasmid (5 µg) previously applied to a nylon matrix with the aid of a slot blot applicator (Schleicher & Schuell, Keene, NH, US). […]
Okadaic acid or calyculin A was then added to a final concentration of 0.5 µM or 25 nM respectively and incubated for another 2 h. […] The immunoprecipitated proteins were analyzed by 7.5% SDS-PAGE as well as by two-dimensional gel electrophoresis as described previously (Guy et al, J. Biol. Chem. 266, 14343-14352, 1991). […]

C=C1[C@@H](O)[C@@H]2O[C@]3(CC[C@H](/C=C/[C@@H](C)[C@@H]4CC(C)=C[C@@]5(O[C@H](C[C@@](C)(O)C(=O)O)CC[C@H]5O)O4)O3)CC[C@H]2O[C@@H]1[C@@H](O)C[C@H](C)[C@H]1O[C@@]2(CCCCO2)CC[C@H]1C [okadaic acid]
Egr-1 phosphoprotein immunoprecipitated (in words): high cellular concentration of the about 100 kDa Egr-1 phosphoprotein
